ChEMBL document CHEMBL4831522, “Structure-Based Optimization of Quinazolines as Cruzain and TbrCATL Inhibitors” (J Med Chem, 2021)
Active and inactive are the calls of the source. The calls are words filed in the database; no cut-off is given here.

Legend:
Cruzipain [1] = target: T1, Cruzipain (Trypanosoma cruzi, UniProt P25779); experiment: Inhibition of recombinant Trypanosoma cruzi cruzain using Z-FR-AMC as substrate by fluorometry
Rhodesain = Rhodesain (Trypanosoma brucei rhodesiense, UniProt Q95PM0); experiment: Inhibition of recombinant Trypanosoma brucei rhodesiense MVAT4 rhodesain expressed in Pichia pastoris using Z-FR-AMC as substrate by fluorometry
Sequence of Rhodesain (Q95PM0 whole entry): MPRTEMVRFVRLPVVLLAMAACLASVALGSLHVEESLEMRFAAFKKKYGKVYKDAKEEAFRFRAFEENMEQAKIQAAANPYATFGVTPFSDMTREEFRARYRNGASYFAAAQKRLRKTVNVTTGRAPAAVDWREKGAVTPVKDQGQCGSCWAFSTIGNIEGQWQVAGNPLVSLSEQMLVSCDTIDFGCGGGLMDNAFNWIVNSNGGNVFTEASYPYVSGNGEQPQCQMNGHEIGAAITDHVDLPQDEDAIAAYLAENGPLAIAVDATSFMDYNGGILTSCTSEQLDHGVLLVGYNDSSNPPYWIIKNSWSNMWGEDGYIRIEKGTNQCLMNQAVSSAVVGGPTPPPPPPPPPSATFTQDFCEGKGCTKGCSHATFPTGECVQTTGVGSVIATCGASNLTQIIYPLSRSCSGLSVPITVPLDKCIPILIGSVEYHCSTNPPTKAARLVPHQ

[2] = target: Rhodesain (Trypanosoma brucei rhodesiense) (UniProt Q95PM0); experiment: Inhibition of recombinant Trypanosoma brucei rhodesiense MVAT4 rhodesain expressed in Pichia pastoris at 1 uM using Z-FR-AMC as substrate by fluorometry relative to control
Sequence of Rhodesain (Trypanosoma brucei rhodesiense) (Q95PM0 1-450): as the sequence (Q95PM0 whole entry) above

[3] = Cytotoxicity against mouse C2C12 cells; format: cell-based
[4] = target: Cruzipain (Trypanosoma cruzi) (UniProt P25779); experiment: Inhibition of recombinant Trypanosoma cruzi cruzain using Z-FR-AMC as substrate and compound-enzyme complex preincubated for 5 mins in presence of 0.001% Triton-X100 by fluorometry relative to control
Sequence of Cruzipain (Trypanosoma cruzi) (P25779 123-467 limits assumed): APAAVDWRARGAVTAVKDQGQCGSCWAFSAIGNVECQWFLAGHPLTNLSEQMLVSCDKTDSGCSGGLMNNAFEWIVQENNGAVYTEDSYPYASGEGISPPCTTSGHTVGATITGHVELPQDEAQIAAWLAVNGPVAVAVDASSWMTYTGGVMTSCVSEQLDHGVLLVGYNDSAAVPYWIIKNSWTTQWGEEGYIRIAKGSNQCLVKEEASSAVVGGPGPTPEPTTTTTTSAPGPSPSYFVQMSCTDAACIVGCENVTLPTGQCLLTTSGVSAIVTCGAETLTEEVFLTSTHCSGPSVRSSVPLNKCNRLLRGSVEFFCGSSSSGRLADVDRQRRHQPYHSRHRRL

[5] = target: Cruzipain (Trypanosoma cruzi) (UniProt P25779); experiment: Inhibition of recombinant Trypanosoma cruzi cruzain at 100 uM using Z-FR-AMC as substrate by fluorometry relative to control
[6] = target: Cruzipain (Trypanosoma cruzi) (UniProt P25779); experiment: Inhibition of recombinant Trypanosoma cruzi cruzain using Z-FR-AMC as substrate and compound-enzyme complex preincubated for 5 mins in presence of 0.1% Triton-X100 by fluorometry relative to control
Trypanosoma cruzi = experiment: Trypanocidal activity against amastigotes form of Trypanosoma cruzi CA-I/72 infected in mouse C2C12 cells assessed as inhibition of parasite replication incubated for 48 hrs by DAPI staining based microscopic analysis; format: functional, organism-based; settings: CA-I/72, C2C12, 48 h
[7] = test system: Trypanosoma brucei brucei; experiment: Antitrypanosomal activity against Trypanosoma brucei brucei Lister 427 bloodstream forms measured after 72 hrs by SYBR green dye based assay; format: functional, organism-based; settings: Lister 427, 72 h
[8] = target: Rhodesain (Trypanosoma brucei rhodesiense) (UniProt Q95PM0); experiment: Inhibition of recombinant Trypanosoma brucei rhodesiense MVAT4 rhodesain expressed in Pichia pastoris at 100 uM using Z-FR-AMC as substrate by fluorometry relative to control
[9] = Selectivity index, ratio of CC50 for cytotoxicity against mouse C2C12 cells to EC50 for trypanocidal activity against Trypanosoma cruzi […] infected in mouse C2C12 cells; format: toxicity, cell-based; settings: read-out: Selectivity Index
[10] = target: Cruzipain (Trypanosoma cruzi) (UniProt P25779); experiment: Inhibition of recombinant Trypanosoma cruzi cruzain using Z-FR-AMC as substrate when compound was preincubated for 5 mins in presence of BSA and 0.001% Triton-X100 followed by further incubation for 5 mins in presence of enzyme relative to control; settings: time 10.0 min
[11] = target: Cruzipain (Trypanosoma cruzi) (UniProt P25779); experiment: Inhibition of recombinant Trypanosoma cruzi cruzain using Z-FR-AMC as substrate and compound-enzyme complex preincubated for 5 mins in presence of 0.01% Triton-X100 by fluorometry relative to control
[12] = target: Cruzipain (Trypanosoma cruzi) (UniProt P25779); experiment: Time dependent inhibition of recombinant Trypanosoma cruzi cruzain at 100 uM using Z-FR-AMC as substrate by fluorometry; settings: time 10.0 min
[13] = target: Rhodesain (Trypanosoma brucei rhodesiense) (UniProt Q95PM0); experiment: Time dependent inhibition of recombinant Trypanosoma brucei rhodesiense MVAT4 rhodesain expressed in Pichia pastoris at 100 uM using Z-FR-AMC as substrate by fluorometry; settings: time 10.0 min
Cruzipain [14] = target: T1, Cruzipain; experiment: Inhibition of recombinant Trypanosoma cruzi cruzain using Z-FR-AMC as substrate preincubated for 10 mins followed by substrate addition by fluorometry
[15] = target: Cruzipain (Trypanosoma cruzi) (UniProt P25779); experiment: Inhibition of recombinant Trypanosoma cruzi cruzain at 100 uM using Z-FR-AMC as substrate preincubated for 10 mins followed by substrate addition by fluorometry relative to control
[16] = target: Cruzipain (Trypanosoma cruzi) (UniProt P25779); experiment: Competitive inhibition of Trypanosoma cruzi cruzain assessed as unchanged initial velocity up to 25 uM using varying levels of Z-FR-AMC as substrate by Michaelis-Menten analysis; settings: dose microM <=25
[17] = target: Cruzipain (Trypanosoma cruzi) (UniProt P25779); experiment: Competitive inhibition of Trypanosoma cruzi cruzain assessed as increase in apparent Kapp up to 25 uM using varying levels of Z-FR-AMC as substrate by Michaelis-Menten analysis; settings: dose microM <=25
Cruzipain [18] = target: T1, Cruzipain; experiment: Competitive inhibition of Trypanosoma cruzi cruzain assessed as inhibition constant using varying levels of Z-FR-AMC as substrate by Michaelis-Menten analysis
[19] = target: Cruzipain (Trypanosoma cruzi) (UniProt P25779); experiment: Inhibition of recombinant Trypanosoma cruzi cruzain at 20 uM using Z-FR-AMC as substrate by fluorometry relative to control
[20] = target: Rhodesain (Trypanosoma brucei rhodesiense) (UniProt Q95PM0); experiment: Inhibition of recombinant Trypanosoma brucei rhodesiense MVAT4 rhodesain expressed in Pichia pastoris at 20 uM using Z-FR-AMC as substrate by fluorometry relative to control
[21] = target: Rhodesain (Trypanosoma brucei rhodesiense) (UniProt Q95PM0); experiment: Inhibition of recombinant Trypanosoma brucei rhodesiense MVAT4 rhodesain expressed in Pichia pastoris at 50 uM using Z-FR-AMC as substrate preincubated for 10 mins followed by substrate addition by fluorometry relative to control
[22] = target: Cruzipain (Trypanosoma cruzi) (UniProt P25779); experiment: Inhibition of recombinant Trypanosoma cruzi cruzain at 50 uM using Z-FR-AMC as substrate preincubated for 10 mins followed by substrate addition by fluorometry relative to control

T1 sequence (P25779 whole entry): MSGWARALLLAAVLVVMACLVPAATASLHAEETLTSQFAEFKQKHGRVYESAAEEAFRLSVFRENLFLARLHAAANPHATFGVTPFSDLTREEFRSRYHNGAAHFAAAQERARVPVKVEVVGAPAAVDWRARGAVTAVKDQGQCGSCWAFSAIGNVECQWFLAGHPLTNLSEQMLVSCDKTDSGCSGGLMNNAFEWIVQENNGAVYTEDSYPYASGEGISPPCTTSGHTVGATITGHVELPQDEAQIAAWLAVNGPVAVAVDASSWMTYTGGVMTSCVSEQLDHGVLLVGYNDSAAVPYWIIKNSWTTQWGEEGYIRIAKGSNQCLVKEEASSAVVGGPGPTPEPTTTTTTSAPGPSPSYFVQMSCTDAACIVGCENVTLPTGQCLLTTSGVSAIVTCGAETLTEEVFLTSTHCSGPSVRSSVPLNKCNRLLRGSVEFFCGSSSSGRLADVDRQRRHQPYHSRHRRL

Structure (SMILES)	IC50 (Cruzipain [1])	CC50 [3]	inhibition [4]	inhibition [5]	inhibition [6]	EC50 (Trypanosoma cruzi)	EC50 [7]	inhibition [8]	selectivity ratio [9]	inhibition [10]	inhibition [11]	further results
CC(C)C[C@H](NC(=O)[C@@H]1O[C@H]1C(=O)O)C(=O)NCCCCN=C(N)N	0.028 µM	–	–	–	–	–	–	–	–	–	–	IC50 (Rhodesain): 0.0037 µM; inhibition [2]: 87%
c1ccc(CNc2nc(Nc3nccs3)nc3ccccc23)cc1	16 µM	> 10 µM	100%	100%	22%	5.6 µM	> 50 µM	100%	> 2	53%	60%	IC50 (Rhodesain): 12.5 µM
c1ccc(CNc2ccnc(Nc3ccccc3)n2)cc1	–	> 10 µM	–	–	–	7 µM	> 50 µM	6%	> 1	–	–	–
COc1ccc(Nc2nc(NCc3ccccc3)c3ccccc3n2)cc1	–	9 µM	83%	–	31%	0.5 µM	15.1 µM	–	18	65%	50%	TDI [12]: Active; TDI [13]: Active; IC50 (Cruzipain [14]): 52 µM; inhibition [15]: 58%
OCCCNc1nc(NCc2ccccc2)c2ccccc2n1	22 µM	> 10 µM	25%	100%	33%	0.5 µM	> 50 µM	47%	> 193	30%	31%	–
Clc1ccc(Nc2nc(NCCN3CCOCC3)c3ccccc3n2)cc1	2.5 µM	> 10 µM	75%	95%	80%	370 µM	23.6 µM	48%	> 27	62%	67%	–
OCCCNc1nc(Nc2cccc(F)c2)c2ccccc2n1	25 µM	> 10 µM	58%	89%	64%	0.09 µM	17.8 µM	56%	> 109	57%	67%	–
OCCCNc1nc(Nc2ccc(Cl)cc2)nc2ccccc12	7.3 µM	> 10 µM	47%	87%	35%	0.25 µM	9 µM	63%	> 40	35%	36%	–
O=C(c1ccc(Nc2nc(NCc3ccccc3)c3ccccc3n2)cc1)N1CCOCC1	7 µM	> 10 µM	45%	99%	49%	0.8 µM	> 50 µM	7%	> 12	46%	53%	inhibition [16]: Active; inhibition [17]: Active; IC50 (Rhodesain): 22 µM; Ki (Cruzipain [18]): 3.2 µM
Oc1cccc(Nc2nc(NCc3ccccc3)c3ccccc3n2)c1	18 µM	10 µM	65%	100%	33%	0.93 µM	13.8 µM	98%	> 11	44%	54%	IC50 (Rhodesain): 26 µM
O=C(c1ccc(Nc2nc(NCCN3CCOCC3)c3ccccc3n2)cc1)N1CCOCC1	13.5 µM	> 10 µM	49%	85%	73%	15 µM	> 50 µM	36%	> 1	42%	63%	–
N=C(N)c1ccc(OCCCCCOc2ccc(C(=N)N)cc2)cc1 [PENTAMIDINE]	–	–	–	–	–	–	0.026 µM	–	–	–	–	–
O=C(Cn1ccnc1[N+](=O)[O-])NCc1ccccc1 [BENZNIDAZOLE]	–	> 50 µM	–	–	–	5.4 µM	–	–	> 9	–	–	–
Cn1cnc2c(NCc3ccccc3)nc(Nc3ccc(Cl)cc3)nc21	–	> 10 µM	–	–	–	12 µM	18.4 µM	5%	> 1	–	–	–
O=C(Nc1ccccc1)c1ccc(Nc2nc(NCCN3CCOCC3)c3ccccc3n2)cc1	–	> 10 µM	–	84%	–	0.8 µM	2.7 µM	29%	> 12	–	–	–
Oc1ccc(Nc2nc(NCc3ccccc3)c3ccccc3n2)cc1	18 µM	> 10 µM	81%	100%	40%	5.9 µM	> 50 µM	95%	> 2	55%	56%	IC50 (Rhodesain): 23 µM
Clc1ccc(Nc2nccc(NCc3ccccc3)n2)cc1	–	> 10 µM	–	–	–	7 µM	25 µM	10%	> 1	–	–	inhibition [19]: 34%; inhibition [20]: 10%
O=C(Nc1ccccc1)c1ccc(Nc2nc(NCc3ccccc3)c3ccccc3n2)cc1	–	> 10 µM	100%	–	4%	1.8 µM	> 50 µM	–	> 6	8%	54%	–
c1ccc(CNc2nc(Nc3ccccc3)nc3ccccc23)cc1	8 µM	> 10 µM	–	–	–	0.047 µM	17.5 µM	77%	> 211	43%	50%	inhibition [16]: Active; inhibition [17]: Active; IC50 (Rhodesain): 17.5 µM; Ki (Cruzipain [18]): 1.7 µM
OCCCNc1nc(NCCN2CCOCC2)c2ccccc2n1	–	> 10 µM	–	67%	–	35 µM	> 50 µM	22%	> 0.3	–	–	–
Clc1ccc(Nc2nc(NCc3ccccc3)c3ccccc3n2)cc1	2.4 µM	10 µM	42%	–	1%	0.5 µM	93 µM	–	21	35%	48%	inhibition [19]: 78%; IC50 (Rhodesain): 33 µM
Cn1cnc2c(NCc3ccccc3)nc(Nc3ccccc3)nc21	–	> 10 µM	–	–	–	2.2 µM	23.8 µM	11%	> 5	–	–	–
c1ccc(Nc2nc(Nc3ccccc3)c3ccccc3n2)cc1	–	> 10 µM	71%	–	81%	0.9 µM	16.3 µM	–	> 11	62%	84%	IC50 (Cruzipain [14]): 14 µM; inhibition [21]: 14%; inhibition [22]: 30%
c1ccc(CNc2nc(Nc3ccccn3)nc3ccccc23)cc1	–	> 10 µM	–	100%	–	2.7 µM	> 50 µM	10%	> 4	–	–	–
Fc1cccc(Nc2nc(Nc3ccccc3)nc3ccccc23)c1	–	> 10 µM	–	46%	–	0.07 µM	9 µM	17%	> 150	–	–	–
O=C(c1ccc(Nc2nc(NCCCO)c3ccccc3n2)cc1)N1CCOCC1	15 µM	> 10 µM	53%	90%	69%	22 µM	> 50 µM	62%	> 0.5	51%	53%	–
